ChEMBL document CHEMBL1201862, “PubChem BioAssay data set” (2004)
Calls of active or inactive are those of the source.

Tests used:
[1] = Luminescence Cell-Based Dose Confirmation HTS to Identify Activators of 5'UTR Stem-Loop Driven Alpha-Synuclein mRNA Translation in H4 Neuroglioblastoma Cells. [Related pubchem assays: 1829 (Project Summary), 1814 (Primary HTS)]; format: functional
[2] = Luminescence Cell-Based Dose Response HTS to Identify Activators of Luciferase Translation or Activity in H4 […] Cells. [Related pubchem assays: 1829 (Project Summary), 1814 (Primary HTS)]; format: functional
[3] = molecular target: Sphingosine 1-phosphate receptor 4 (Homo sapiens, UniProt O95977); experiment: Late-stage fluorescence dose response cell-based assay to identify agonists of the Sphingosine 1-Phosphate Receptor 4 (S1P4): purchased compounds EC50. [Related pubchem assays (depositor defined):AID1509, AID1523, AID1563, AID1686, AID1701, AID1801]; format: functional
[4] = molecular target: T1, Polyadenylate-binding protein 1 (Homo sapiens, UniProt P11940); experiment: PABP inhibition in translation initiation, SAR follow-up (AID 435018); format: functional
[5] = molecular target: Eukaryotic translation initiation factor 4H (Homo sapiens, UniProt Q15056); experiment: eIF4H inhibition in translation initiation, SAR follow-up (AID 435011); format: functional
[6] = molecular target: Melanin-concentrating hormone receptor 1 (Homo sapiens, UniProt Q99705); experiment: Late-stage fluorescence-based counterscreen for antagonists of the G-protein coupled receptor 7 (GPR7): cell-based dose response assay to identify antagonists of the melanin-concentrating hormone receptor 1 (MCHR1). [Related pubchem assays (depositor defined):AID1861, AID1880, AID1952, AID2148, AID2251, AID2257, AID485339]; format: functional;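 note: stimulated with 30 nM MCH peptide agonist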
[7] = inhibitors of firefly luciferase expression or activity, dose response, H4 neuroglioma cells, luminescence (AID 1990); format: functional, cell-based
[8] = inhibitors of SNCA 5'UTR-driven reporter translation, confirmation, H4 neuroglioma cells, luminescence (AID 1988); format: functional, cell-based
[9] = molecular target: ORF 73 (Human herpesvirus 8, UniProt O40947); experiment: inhibitors of C-LANA binding to LBS DNA, dose response, biochemical, fluorescence polarization, cherry-picked samples (AID 504725); parameters: species or system Human gammaherpesvirus 8;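 note: fluorescence polarization of a labeled DNA duplex reporting LANA DNA binding; potency is for inhibitors that block LANA binding to the DNA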
[10] = molecular target: Protein S100-A4 (Homo sapiens, UniProt P26447); experiment: S100A4-myosin IIA binding inhibitor potency, dose response, biochemical, fluorescence polarization, cherry-picked hits (AID 687001); format: functional
[11] = test system: HeLa; experiment: HeLa cell cytotoxicity, dose response, cytotoxicity control, 24 h, cherry-picked samples (AID 504726); format: functional, cell-based; conditions: Homo sapiens;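 note: potency for cytotoxicity as loss of luminescence signal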
[12] = molecular target: Paired box protein Pax-8 (Homo sapiens, UniProt Q06710); experiment: inhibitors of PAX8-driven TPO luciferase reporter, dose response, RMG-I cells, cherry-pick (AID 687027); format: functional, cell-based;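 note: luciferase reporter driven by Pax8 target thyroperoxidase promoter measured by SteadyGlo luminescence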
[13] = Luminescence Cell-Based Dose Response HTS to Identify Inhibitors of 5'UTR Stem-Loop Driven Prion Protein mRNA Translation in H4 Neuroglioblastoma Cells. [Related pubchem assays: 1827 (Project Summary), 1813 (Primary HTS)]; format: functional
[14] = molecular target: T2, Cannabinoid receptor 2 (Homo sapiens, UniProt P34972); experiment: SAR analysis of agonists of the Cannabinoid Receptor 2 using an Image-Based Assay - Set 2. [Related pubchem assays (depositor defined):AID1961, AID1965]; format: functional
[15] = molecular target: T3, G-protein coupled receptor 35 (Homo sapiens, UniProt Q9HC97); experiment: SAR analysis of Antagonists of the GPR35 Receptor using an Image-Based Assay - Set 4. [Related pubchem assays (depositor defined):[…]]; format: functional
[16] = molecular target: G-protein coupled receptor 55 (Homo sapiens, UniProt Q9Y2T6); experiment: SAR analysis of selective Agonists of GPR55 using an Image-Based Assay - Set 2. [Related pubchem assays (depositor defined):AID1961, AID1965]; format: functional
[17] = molecular target: T2, Cannabinoid receptor 2; experiment: SAR analysis of antagonists of the Cannabinoid Receptor 2 using an Image-Based Assay - Set 2. [Related pubchem assays (depositor defined):AID1961, AID1965]; format: functional
[18] = molecular target: T4, Cannabinoid receptor 1 (Homo sapiens, UniProt P21554); experiment: SAR analysis of agonists of the Cannabinoid Receptor 1 using an Image-Based Assay - Set 3. [Related pubchem assays (depositor defined):AID1961, AID1965]; format: functional
[19] = molecular target: T3, G-protein coupled receptor 35; experiment: SAR analysis of Agonists of the GPR35 Receptor using an Image-Based Assay - Set 3. [Related pubchem assays (depositor defined):AID1961, AID1965]; format: functional
[20] = molecular target: T4, Cannabinoid receptor 1; experiment: SAR analysis of antagonists of the Cannabinoid Receptor 1 using an Image-Based Assay - Set 3. [Related pubchem assays (depositor defined):AID1961, AID1965]; format: functional
[21] = molecular target: T5, Sentrin-specific protease 1 (Homo sapiens, UniProt Q9P0U3); experiment: potency of human SENP1 inhibitors, dose response, biochemical, kinetic FRET (AID 651697); format: functional; conditions: read-out: IC50_Mean
T5 sequence (Q9P0U3 whole entry): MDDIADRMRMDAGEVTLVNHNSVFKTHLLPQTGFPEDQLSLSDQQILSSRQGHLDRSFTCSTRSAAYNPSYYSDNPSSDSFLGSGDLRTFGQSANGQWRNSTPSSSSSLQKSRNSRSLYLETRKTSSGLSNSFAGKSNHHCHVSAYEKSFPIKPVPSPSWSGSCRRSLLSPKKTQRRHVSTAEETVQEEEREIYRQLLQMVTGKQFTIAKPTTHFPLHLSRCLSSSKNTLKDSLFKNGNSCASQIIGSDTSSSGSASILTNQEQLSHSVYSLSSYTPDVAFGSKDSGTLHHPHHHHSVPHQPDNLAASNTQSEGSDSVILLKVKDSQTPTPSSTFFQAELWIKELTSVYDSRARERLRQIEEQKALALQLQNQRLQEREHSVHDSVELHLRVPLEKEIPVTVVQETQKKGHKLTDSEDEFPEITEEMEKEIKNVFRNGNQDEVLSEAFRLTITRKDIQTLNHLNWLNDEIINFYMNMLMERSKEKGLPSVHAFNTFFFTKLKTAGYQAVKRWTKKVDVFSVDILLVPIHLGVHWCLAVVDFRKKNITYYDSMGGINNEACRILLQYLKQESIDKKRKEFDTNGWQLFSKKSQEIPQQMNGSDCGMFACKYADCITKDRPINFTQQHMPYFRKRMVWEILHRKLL

[22] = molecular target: T1, Polyadenylate-binding protein 1; experiment: PABP1 MLLE–PAM2 binding inhibitor potency, dose response, biochemical, fluorescence polarization, FITC-PAM2 peptide (AID 602259); format: functional; conditions: read-out: IC50_Mean
[23] = molecular target: T1, Polyadenylate-binding protein 1; experiment: PABP1 MLLE–PAM2 interaction inhibitors, dose response, miRNA deadenylation inhibitor project, biochemical, fluorescence polarization, Cy5-PAM2 peptide, secondary (AID 602260); format: functional; conditions: read-out: IC50_Mean
[24] = molecular target: Female germline-specific tumor suppressor gld-1 (Caenorhabditis elegans, UniProt Q17339); experiment: inhibitors of GLD-1 binding to TGE RNA, dose response, biochemical, fluorescence polarization, C. elegans (AID 2802);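 note: fluorescence polarization of labeled TGE RNA bound by purified gld-1 protein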
[25] = molecular target: T5, Sentrin-specific protease 1; experiment: Dose response confirmation of small molecule inhibitors of the catalytic domain of the SUMO protease, SENP1 in a FRET assay.; format: functional; conditions: read-out: IC50_Mean
[26] = molecular target: Protein Rev (Human immunodeficiency virus type 1 group M subtype B (isolate HXB2)(HIV-1), UniProt P04618); experiment: inhibitors of Rev binding to RRE RNA, dose response, biochemical, fluorescence polarization, HIV-1 (AID 434976); parameters: species or system Human immunodeficiency virus 1
[27] = molecular target: Beta-galactosidase (Escherichia coli, UniProt Q8VNN2); experiment: beta-galactosidase enzyme inhibitors and activators, dose response, artefact control for CCR6 antagonist project, biochemical, E. coli enzyme, set 3 (AID 504712); format: functional
[28] = molecular target: C-C chemokine receptor type 6 (Homo sapiens, UniProt P51684); experiment: CCR6 receptor antagonists, dose response, cell-based, luminescent beta-arrestin readout (AID 504728); format: functional
[29] = cells; format: functional, cell-based
[30] = cells; format: functional, cell-based; remark: listed apart in the source
[31] = test system: Vero; experiment: cells; format: functional; conditions: Chlorocebus sabaeus

T1 sequence (P11940 whole entry): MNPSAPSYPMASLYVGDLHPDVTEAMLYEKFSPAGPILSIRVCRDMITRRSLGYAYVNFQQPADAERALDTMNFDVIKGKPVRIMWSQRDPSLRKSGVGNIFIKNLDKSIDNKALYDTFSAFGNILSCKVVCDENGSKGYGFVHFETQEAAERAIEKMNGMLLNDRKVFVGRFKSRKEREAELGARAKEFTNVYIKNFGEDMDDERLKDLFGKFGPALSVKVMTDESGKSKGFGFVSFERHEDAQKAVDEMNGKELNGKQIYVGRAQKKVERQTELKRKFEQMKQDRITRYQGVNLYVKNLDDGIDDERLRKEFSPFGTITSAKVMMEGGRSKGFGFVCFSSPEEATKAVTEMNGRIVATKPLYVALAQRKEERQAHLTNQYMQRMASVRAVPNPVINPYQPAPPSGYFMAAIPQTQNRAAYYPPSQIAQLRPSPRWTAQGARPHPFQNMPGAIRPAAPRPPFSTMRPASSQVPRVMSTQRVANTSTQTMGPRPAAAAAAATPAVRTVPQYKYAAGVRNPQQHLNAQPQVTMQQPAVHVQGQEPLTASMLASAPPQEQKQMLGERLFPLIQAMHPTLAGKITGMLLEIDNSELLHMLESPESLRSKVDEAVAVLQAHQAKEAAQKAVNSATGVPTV
T3 sequence (Q9HC97 whole entry): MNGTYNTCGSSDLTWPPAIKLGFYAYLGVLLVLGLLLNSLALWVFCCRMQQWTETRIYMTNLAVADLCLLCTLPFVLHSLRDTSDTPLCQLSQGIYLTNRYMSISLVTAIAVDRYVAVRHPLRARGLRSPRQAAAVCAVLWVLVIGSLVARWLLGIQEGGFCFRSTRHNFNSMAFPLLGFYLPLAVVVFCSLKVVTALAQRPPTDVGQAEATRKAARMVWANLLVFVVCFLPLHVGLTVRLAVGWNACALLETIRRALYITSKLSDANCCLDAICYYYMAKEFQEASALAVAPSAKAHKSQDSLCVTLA
T4 sequence (P21554 whole entry): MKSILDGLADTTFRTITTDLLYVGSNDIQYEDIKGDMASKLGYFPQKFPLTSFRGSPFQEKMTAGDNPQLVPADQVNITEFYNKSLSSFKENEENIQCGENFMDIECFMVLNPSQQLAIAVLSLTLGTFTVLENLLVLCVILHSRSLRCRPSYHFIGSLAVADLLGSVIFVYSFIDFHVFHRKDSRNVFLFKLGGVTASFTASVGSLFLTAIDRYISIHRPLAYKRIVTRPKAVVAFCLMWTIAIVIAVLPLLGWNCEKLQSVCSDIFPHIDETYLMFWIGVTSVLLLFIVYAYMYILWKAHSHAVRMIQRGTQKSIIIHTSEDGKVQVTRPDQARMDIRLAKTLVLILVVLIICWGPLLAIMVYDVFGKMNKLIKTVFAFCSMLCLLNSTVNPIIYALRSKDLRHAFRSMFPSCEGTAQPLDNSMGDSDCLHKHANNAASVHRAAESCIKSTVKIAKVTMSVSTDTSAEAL
T2 sequence (P34972 whole entry): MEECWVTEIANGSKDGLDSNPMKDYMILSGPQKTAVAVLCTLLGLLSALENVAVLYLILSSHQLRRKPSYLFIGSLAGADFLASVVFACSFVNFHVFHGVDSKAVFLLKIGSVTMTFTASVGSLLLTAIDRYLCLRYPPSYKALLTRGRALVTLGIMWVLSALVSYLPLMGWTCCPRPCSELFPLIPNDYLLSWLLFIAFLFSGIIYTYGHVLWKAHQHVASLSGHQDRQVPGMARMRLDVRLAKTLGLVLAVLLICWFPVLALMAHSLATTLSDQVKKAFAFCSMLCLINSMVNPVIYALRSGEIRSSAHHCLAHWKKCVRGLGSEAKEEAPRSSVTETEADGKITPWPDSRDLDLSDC
Chain of Paired box protein Pax-8 (Q06710 whole entry): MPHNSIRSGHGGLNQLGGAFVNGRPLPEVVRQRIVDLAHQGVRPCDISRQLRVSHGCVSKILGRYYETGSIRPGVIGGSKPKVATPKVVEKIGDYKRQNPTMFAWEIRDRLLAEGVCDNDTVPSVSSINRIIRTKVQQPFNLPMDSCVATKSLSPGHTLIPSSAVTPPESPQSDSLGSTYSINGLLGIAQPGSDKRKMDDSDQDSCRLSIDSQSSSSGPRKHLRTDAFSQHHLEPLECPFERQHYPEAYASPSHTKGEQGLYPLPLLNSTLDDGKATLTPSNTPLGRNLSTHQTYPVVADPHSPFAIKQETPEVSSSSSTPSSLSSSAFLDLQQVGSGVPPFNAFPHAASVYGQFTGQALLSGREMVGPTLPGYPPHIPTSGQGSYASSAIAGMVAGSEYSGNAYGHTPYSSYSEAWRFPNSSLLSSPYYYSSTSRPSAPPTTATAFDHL
Chain of Female germline-specific tumor suppressor gld-1 (Q17339 whole entry, the tested form may be a part): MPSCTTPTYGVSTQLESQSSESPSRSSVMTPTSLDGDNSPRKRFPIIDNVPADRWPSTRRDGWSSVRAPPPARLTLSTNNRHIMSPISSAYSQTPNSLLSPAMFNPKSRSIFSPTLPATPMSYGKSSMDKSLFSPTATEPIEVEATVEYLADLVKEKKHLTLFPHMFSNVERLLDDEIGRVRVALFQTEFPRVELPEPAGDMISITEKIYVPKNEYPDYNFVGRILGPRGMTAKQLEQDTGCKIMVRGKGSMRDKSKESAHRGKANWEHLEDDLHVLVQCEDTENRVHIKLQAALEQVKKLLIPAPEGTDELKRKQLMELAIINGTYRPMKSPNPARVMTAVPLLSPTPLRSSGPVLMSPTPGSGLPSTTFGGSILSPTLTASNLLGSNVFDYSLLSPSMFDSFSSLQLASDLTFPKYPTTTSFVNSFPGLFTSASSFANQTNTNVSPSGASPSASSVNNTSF
Chain of Beta-galactosidase (Q8VNN2 whole entry): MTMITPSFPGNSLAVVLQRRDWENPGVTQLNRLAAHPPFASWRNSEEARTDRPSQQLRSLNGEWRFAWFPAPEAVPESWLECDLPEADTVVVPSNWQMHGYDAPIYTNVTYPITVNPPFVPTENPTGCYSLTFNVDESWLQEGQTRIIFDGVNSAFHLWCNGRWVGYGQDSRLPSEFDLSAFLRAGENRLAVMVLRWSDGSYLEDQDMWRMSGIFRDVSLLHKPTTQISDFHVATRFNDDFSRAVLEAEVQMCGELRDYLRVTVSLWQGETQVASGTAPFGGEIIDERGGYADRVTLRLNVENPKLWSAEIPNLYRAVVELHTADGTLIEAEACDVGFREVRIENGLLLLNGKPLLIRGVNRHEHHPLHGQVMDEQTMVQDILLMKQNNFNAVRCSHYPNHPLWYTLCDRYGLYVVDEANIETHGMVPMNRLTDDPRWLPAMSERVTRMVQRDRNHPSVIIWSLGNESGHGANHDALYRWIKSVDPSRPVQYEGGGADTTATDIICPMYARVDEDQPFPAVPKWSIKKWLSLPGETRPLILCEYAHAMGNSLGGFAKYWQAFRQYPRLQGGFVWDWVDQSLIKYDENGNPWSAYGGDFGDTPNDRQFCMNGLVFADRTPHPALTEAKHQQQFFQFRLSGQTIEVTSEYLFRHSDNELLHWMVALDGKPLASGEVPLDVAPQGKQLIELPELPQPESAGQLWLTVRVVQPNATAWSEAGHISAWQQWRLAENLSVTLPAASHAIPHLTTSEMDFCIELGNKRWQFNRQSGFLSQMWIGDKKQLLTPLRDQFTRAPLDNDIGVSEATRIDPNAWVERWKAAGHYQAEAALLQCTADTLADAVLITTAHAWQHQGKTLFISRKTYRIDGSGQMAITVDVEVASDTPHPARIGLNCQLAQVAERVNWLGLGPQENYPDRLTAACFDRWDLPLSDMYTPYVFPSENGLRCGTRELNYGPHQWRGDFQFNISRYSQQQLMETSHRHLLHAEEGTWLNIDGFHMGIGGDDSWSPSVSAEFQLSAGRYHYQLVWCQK
Chain of Protein S100-A4 (P26447 whole entry): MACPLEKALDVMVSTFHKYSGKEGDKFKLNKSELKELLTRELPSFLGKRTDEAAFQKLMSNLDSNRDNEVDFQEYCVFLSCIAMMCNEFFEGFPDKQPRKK
Chain of Sphingosine 1-phosphate receptor 4 (O95977 whole entry): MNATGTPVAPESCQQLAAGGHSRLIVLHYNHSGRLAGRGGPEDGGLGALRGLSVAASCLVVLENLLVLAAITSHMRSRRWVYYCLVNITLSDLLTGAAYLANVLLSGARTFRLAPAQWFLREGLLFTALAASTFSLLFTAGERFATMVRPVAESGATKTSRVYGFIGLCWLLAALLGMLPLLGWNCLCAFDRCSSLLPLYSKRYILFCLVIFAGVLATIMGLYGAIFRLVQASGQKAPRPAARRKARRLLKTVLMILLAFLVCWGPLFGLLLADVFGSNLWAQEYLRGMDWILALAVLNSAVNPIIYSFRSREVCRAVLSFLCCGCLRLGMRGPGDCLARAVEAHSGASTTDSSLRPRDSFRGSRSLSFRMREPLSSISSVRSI
Chain of Melanin-concentrating hormone receptor 1 (Q99705 whole entry): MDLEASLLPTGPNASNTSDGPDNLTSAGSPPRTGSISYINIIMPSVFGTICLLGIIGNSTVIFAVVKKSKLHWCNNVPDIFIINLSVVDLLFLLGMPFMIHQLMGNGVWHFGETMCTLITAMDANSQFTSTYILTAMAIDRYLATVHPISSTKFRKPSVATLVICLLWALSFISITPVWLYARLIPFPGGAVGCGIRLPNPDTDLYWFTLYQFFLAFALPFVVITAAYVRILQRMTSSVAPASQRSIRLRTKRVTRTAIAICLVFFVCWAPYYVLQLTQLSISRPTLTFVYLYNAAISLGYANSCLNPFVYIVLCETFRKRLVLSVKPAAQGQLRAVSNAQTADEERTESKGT
Chain of Protein Rev (P04618 whole entry): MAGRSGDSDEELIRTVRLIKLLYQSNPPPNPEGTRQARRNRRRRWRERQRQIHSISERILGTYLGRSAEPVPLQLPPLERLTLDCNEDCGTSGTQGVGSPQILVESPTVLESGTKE

In the case of `Cc1ccc(OCCOc2cccc(Br)c2)c([N+](=O)[O-])n1`, the EC50 [1] is reported as 5.57 µM (active), the EC50 [2] is reported as 27.6 µM (active) and the EC50 [3] is reported as > 50 µM (inactive).
With `CCc1nnc(NC(=O)CSc2ccc(-c3ccco3)nn2)s1` the IC50 [4] was 64.4 µM (active) and the IC50 [5] was 9.04 µM (active).
With `O=C(C1CCCCN1Cc1ccccc1)N1CCN(c2ccc([N+](=O)[O-])cc2)CC1` (stereo unspecified) the IC50 [6] was 11.3 µM (inactive).
With `COc1cccc2c1C(=O)c1c(O)c3c(c(O)c1C2=O)C[C@](O)(C(C)=O)C[C@H]3O[C@@H]1C[C@@H](N)[C@@H](O)[C@@H](C)O1` the EC50 [7] was < 0.1 µM (active), the EC50 [8] was < 0.1 µM (active) and the AC50 [9] was 3.01 µM (active). For the same molecule, the AC50 [10] was 0.29 µM (active), the AC50 [11] was 3.2 µM (active) and the AC50 [12] was 2.84 µM (active). For the same molecule, the EC50 [13] was 0.102 µM (active).
In the case of `COc1ccc(S(=O)(=O)N2CCOCC2)cc1NC(=O)c1ccc(Cl)cc1`, the EC50 [14] is reported as > 32 µM (inactive), the IC50 [15] is reported as 12.3 µM (inactive) and the EC50 [16] is reported as 0.138 µM (active). For the same molecule, the IC50 [17] was > 32 µM (inactive), the EC50 [18] was 5.08 µM (active) and the EC50 [19] was > 32 µM (inactive). The IC50 [20] was > 32 µM (inactive).
For `O=C1C=C(O)c2cccc3cccc1c23`, the IC50 [21] was 13.1 µM (active), the IC50 [22] was 34.5 µM (inactive) and the IC50 [23] was 33.1 µM (inactive). The IC50 [24] was 6.13 µM (active), the IC50 [25] was 8.55 µM (active) and the IC50 [26] was 13.9 µM (not active).
For `Cc1cc(C)nc(N/N=C/C2=C(O)CC(c3ccc(F)cc3)CC2=O)n1` (stereo unspecified), the IC50 [27] was > 66.6 µM (inactive), the IC50 [28] was > 66.6 µM (inactive) and the EC50 [29] was 15.9 µM (active). The EC50 [30] was > 350 µM (not active) and the CC50 [31] was > 25 µM (active).
